Experiments:
[1] = test system: New Zealand rabbits with normal intraocular pressure; test: Repeated eye-drop administration for 14 days, experiment operation 2: Day 1 intraocular pressure; type: in vivo; settings: for Mean intraocular pressure of both eyes: saline in left, Day 1
Source text: (§1) Experimental example 4. Experiment on reduction of intraocular pressure and ocular toxicity of New Zealand rabbits with normal intraocular pressure by repeated eye-drop administration for 14 days
(§2) The intraocular pressure reduction action and the potential ocular toxicity of compound 63 were explored by 14 days of repeated eye-drop administration in rabbits with normal intraocular pressure.
(§3) Male New Zealand rabbits, aged 97-127 days, weighted 2.6-3.5 kg, purchased from PizhouDongfang Breeding Co. Ltd.
42 male New Zealand rabbits were randomly divided into 7 groups, with 6 rabbits per group. Animals were randomly divided according to body weight Animals in 1-7 groups were eye-dropped with normal saline in the left eye and with solvent/control sample/test sample in the right eye respectively by a volume of 50 μL/eye, once per day for 14 consecutive days, and the day of administration was recorded as Day 1. The intraocular pressure of the animals was measured before Day 1 administration and in 1, 2, 4, 6, 8 and 10 hours after Day 1 administration, respectively (Table 8).

[2] = test system: New Zealand rabbits with normal intraocular pressure; test: Reduction of intraocular pressure by repeated eye-drop administration for 14 days, experiment operation 1; type: in vivo; settings: for Change of intraocular pressure: negative control minus group
Source text: as §1, §2, §3
The male New Zealand rabbits were randomly divided into 7 groups, with 6 rabbits per group. Animals were randomly divided according to body weight Animals in 1-7 groups were eye-dropped with solvent/control sample/test sample in both eyes, the volume of the administration was all 50 μL/eye, once per day for 14 consecutive days, and the day of the administration was recorded as Day 1. On Day 1, intraocular pressure of the animals was measured before the administration and in 1, 2, 4, 6, 8 and 10 hours after the administration, respectively; on Days 2-14, intraocular pressure of the animals was measured in 1 hour after daily administration for the group administered with K-115, and intraocular pressure of the animal was measured in 4 hours after daily administration for the other groups.

[3] = 0.5 mg/mL once per day, Day 2, 4 hours after daily administration
[4] = 0.5 mg/mL once per day, Day 3, 4 hours after daily administration
[5] = 0.5 mg/mL once per day, Day 4, 4 hours after daily administration
[6] = 0.5 mg/mL once per day, Day 5, 4 hours after daily administration
[7] = 0.5 mg/mL once per day, Day 6, 4 hours after daily administration
[8] = 0.5 mg/mL once per day, Day 7, 4 hours after daily administration
[9] = 1.0 mg/mL once per day, Day 2, 4 hours after daily administration
[10] = 1.0 mg/mL once per day, Day 3, 4 hours after daily administration
[11] = 1.0 mg/mL once per day, Day 4, 4 hours after daily administration
[12] = 1.0 mg/mL once per day, Day 5, 4 hours after daily administration
[13] = 1.0 mg/mL once per day, Day 6, 4 hours after daily administration
[14] = 1.0 mg/mL once per day, Day 7, 4 hours after daily administration

Cc1ccc(C(=O)OCn2cc(C)c3c(S(=O)(=O)N4CC[C@H](N)C4)cccc3c2=O)c(C)c1 [Compound 63]
Mean intraocular pressure of both eyes ([1]; 0.25 mg/mL in right eye, 1 hour after administration): 6.22 mmHg
Mean intraocular pressure of both eyes ([1]; 0.25 mg/mL in right eye, 2 hours after administration): 6.17 mmHg
Mean intraocular pressure of both eyes ([1]; 0.25 mg/mL in right eye, 4 hours after administration): 6.67 mmHg
Mean intraocular pressure of both eyes ([1]; 0.25 mg/mL in right eye, 6 hours after administration): 8.06 mmHg
Mean intraocular pressure of both eyes ([1]; 0.25 mg/mL in right eye, 8 hours after administration): 9.72 mmHg
Mean intraocular pressure of both eyes ([1]; 0.25 mg/mL in right eye, 10 hours after administration): 10.95 mmHg
Mean intraocular pressure of both eyes ([1]; 0.25 mg/mL in right eye, before administration): 9.84 mmHg
Mean intraocular pressure of both eyes ([1]; 0.5 mg/mL in right eye, 1 hour after administration): 5.39 mmHg
Mean intraocular pressure of both eyes ([1]; 0.5 mg/mL in right eye, 2 hours after administration): 5.50 mmHg
Mean intraocular pressure of both eyes ([1]; 0.5 mg/mL in right eye, 4 hours after administration): 6.95 mmHg
Mean intraocular pressure of both eyes ([1]; 0.5 mg/mL in right eye, 6 hours after administration): 8.94 mmHg
Mean intraocular pressure of both eyes ([1]; 0.5 mg/mL in right eye, 8 hours after administration): 9.89 mmHg
Mean intraocular pressure of both eyes ([1]; 0.5 mg/mL in right eye, 10 hours after administration): 11.56 mmHg
Mean intraocular pressure of both eyes ([1]; 0.5 mg/mL in right eye, before administration): 9.22 mmHg
Mean intraocular pressure of both eyes ([1]; 1.0 mg/mL in right eye, 1 hour after administration): 5.56 mmHg
Mean intraocular pressure of both eyes ([1]; 1.0 mg/mL in right eye, 2 hours after administration): 5.39 mmHg
Mean intraocular pressure of both eyes ([1]; 1.0 mg/mL in right eye, 4 hours after administration): 6.67 mmHg
Mean intraocular pressure of both eyes ([1]; 1.0 mg/mL in right eye, 6 hours after administration): 7.33 mmHg
Mean intraocular pressure of both eyes ([1]; 1.0 mg/mL in right eye, 8 hours after administration): 10.50 mmHg
Mean intraocular pressure of both eyes ([1]; 1.0 mg/mL in right eye, 10 hours after administration): 10.89 mmHg
Mean intraocular pressure of both eyes ([1]; 1.0 mg/mL in right eye, before administration): 9.17 mmHg
Mean intraocular pressure of both eyes ([1]; 2.0 mg/mL in right eye, 1 hour after administration): 8.11 mmHg
Mean intraocular pressure of both eyes ([1]; 2.0 mg/mL in right eye, 2 hours after administration): 5.84 mmHg
Mean intraocular pressure of both eyes ([1]; 2.0 mg/mL in right eye, 4 hours after administration): 6.06 mmHg
Mean intraocular pressure of both eyes ([1]; 2.0 mg/mL in right eye, 6 hours after administration): 7.11 mmHg
Mean intraocular pressure of both eyes ([1]; 2.0 mg/mL in right eye, 8 hours after administration): 9.00 mmHg
Mean intraocular pressure of both eyes ([1]; 2.0 mg/mL in right eye, 10 hours after administration): 10.05 mmHg
Mean intraocular pressure of both eyes ([1]; 2.0 mg/mL in right eye, before administration): 9.72 mmHg
Mean intraocular pressure of both eyes ([1]; 4 mg/mL in right eye, 1 hour after administration): 6.61 mmHg
Mean intraocular pressure of both eyes ([1]; 4 mg/mL in right eye, 2 hours after administration): 5.84 mmHg
Mean intraocular pressure of both eyes ([1]; 4 mg/mL in right eye, 4 hours after administration): 5.72 mmHg
Mean intraocular pressure of both eyes ([1]; 4 mg/mL in right eye, 6 hours after administration): 6.61 mmHg
Mean intraocular pressure of both eyes ([1]; 4 mg/mL in right eye, 8 hours after administration): 8.39 mmHg
Mean intraocular pressure of both eyes ([1]; 4 mg/mL in right eye, 10 hours after administration): 10.67 mmHg
Mean intraocular pressure of both eyes ([1]; 4 mg/mL in right eye, before administration): 10.00 mmHg
Efficacy of a single dose (highest hypotensive effect and action duration) ([1]; all test doses (0.25-4.0 mg/mL), compared with K-115): superior efficacy
Mean intraocular pressure of both eyes ([2]; 0.5 mg/mL both eyes, Day 1, 1 hour after administration): 8.83 mmHg
Mean intraocular pressure of both eyes ([2]; 0.5 mg/mL both eyes, Day 1, 2 hours after administration): 7.56 mmHg
Mean intraocular pressure of both eyes ([2]; 0.5 mg/mL both eyes, Day 1, 4 hours after administration): 7.11 mmHg
Mean intraocular pressure of both eyes ([2]; 0.5 mg/mL both eyes, Day 1, 6 hours after administration): 9.61 mmHg
Mean intraocular pressure of both eyes ([2]; 0.5 mg/mL both eyes, Day 1, 8 hours after administration): 9.06 mmHg
Mean intraocular pressure of both eyes ([2]; 0.5 mg/mL both eyes, Day 1, 10 hours after administration): 9.97 mmHg
Mean intraocular pressure of both eyes ([2]; 0.5 mg/mL both eyes, Day 1, before administration): 10.11 mmHg
Mean intraocular pressure of both eyes [2, 3]: 7.94 mmHg
Change of intraocular pressure [2, 3]: 3.14 mmHg
Mean intraocular pressure of both eyes [2, 4]: 7.31 mmHg
Change of intraocular pressure [2, 4]: 3.08 mmHg
Mean intraocular pressure of both eyes [2, 5]: 7.78 mmHg
Change of intraocular pressure [2, 5]: 2.83 mmHg
Mean intraocular pressure of both eyes [2, 6]: 7.19 mmHg
Change of intraocular pressure [2, 6]: 3.78 mmHg
Mean intraocular pressure of both eyes [2, 7]: 6.61 mmHg
Change of intraocular pressure [2, 7]: 2.7 mmHg
Mean intraocular pressure of both eyes [2, 8]: 6.00 mmHg
Change of intraocular pressure [2, 8]: 4.06 mmHg
Change of intraocular pressure ([2]; 0.5 mg/mL once per day, Day 8, 4 hours after daily administration): 4.2 mmHg
Change of intraocular pressure ([2]; 0.5 mg/mL once per day, Day 9, 4 hours after daily administration): 3.25 mmHg
Change of intraocular pressure ([2]; 0.5 mg/mL once per day, Day 10, 4 hours after daily administration): 3 mmHg
Change of intraocular pressure ([2]; 0.5 mg/mL once per day, Day 11, 4 hours after daily administration): 3.25 mmHg
Change of intraocular pressure ([2]; 0.5 mg/mL once per day, Day 12, 4 hours after daily administration): 3.28 mmHg
Change of intraocular pressure ([2]; 0.5 mg/mL once per day, Day 13, 4 hours after daily administration): 3.31 mmHg
Change of intraocular pressure ([2]; 0.5 mg/mL once per day, Day 14, 4 hours after daily administration): 3.72 mmHg
Change of intraocular pressure ([2]; 0.5 mg/mL, Day 1, 1 hour after administration): 1.48 mmHg
Change of intraocular pressure ([2]; 0.5 mg/mL, Day 1, 2 hours after administration): 3.41 mmHg
Change of intraocular pressure ([2]; 0.5 mg/mL, Day 1, 4 hours after administration): 4.2 mmHg
Change of intraocular pressure ([2]; 0.5 mg/mL, Day 1, 6 hours after administration): 2.33 mmHg
Change of intraocular pressure ([2]; 0.5 mg/mL, Day 1, 8 hours after administration): 3.91 mmHg
Change of intraocular pressure ([2]; 0.5 mg/mL, Day 1, 10 hours after administration): 4.45 mmHg
Change of intraocular pressure ([2]; 0.5 mg/mL, Day 1, before administration): −0.22 mmHg
Mean intraocular pressure of both eyes ([2]; 1.0 mg/mL both eyes, Day 1, 1 hour after administration): 7.08 mmHg
Mean intraocular pressure of both eyes ([2]; 1.0 mg/mL both eyes, Day 1, 2 hours after administration): 6.67 mmHg
Mean intraocular pressure of both eyes ([2]; 1.0 mg/mL both eyes, Day 1, 4 hours after administration): 6.44 mmHg
Mean intraocular pressure of both eyes ([2]; 1.0 mg/mL both eyes, Day 1, 6 hours after administration): 8.00 mmHg
Mean intraocular pressure of both eyes ([2]; 1.0 mg/mL both eyes, Day 1, 8 hours after administration): 9.22 mmHg
Mean intraocular pressure of both eyes ([2]; 1.0 mg/mL both eyes, Day 1, 10 hours after administration): 10.56 mmHg
Mean intraocular pressure of both eyes ([2]; 1.0 mg/mL both eyes, Day 1, before administration): 9.94 mmHg
Mean intraocular pressure of both eyes [2, 9]: 7.64 mmHg
Change of intraocular pressure [2, 9]: 3.44 mmHg
Mean intraocular pressure of both eyes [2, 10]: 7.50 mmHg
Change of intraocular pressure [2, 10]: 2.89 mmHg
Mean intraocular pressure of both eyes [2, 11]: 7.33 mmHg
Change of intraocular pressure [2, 11]: 3.28 mmHg
Mean intraocular pressure of both eyes [2, 12]: 7.44 mmHg
Change of intraocular pressure [2, 12]: 3.53 mmHg
Mean intraocular pressure of both eyes [2, 13]: 6.92 mmHg
Change of intraocular pressure [2, 13]: 2.39 mmHg
Mean intraocular pressure of both eyes [2, 14]: 7.00 mmHg
Change of intraocular pressure [2, 14]: 3.06 mmHg
Change of intraocular pressure ([2]; 1.0 mg/mL once per day, Day 8, 4 hours after daily administration): 4.03 mmHg
Change of intraocular pressure ([2]; 1.0 mg/mL once per day, Day 9, 4 hours after daily administration): 2.5 mmHg
Change of intraocular pressure ([2]; 1.0 mg/mL once per day, Day 10, 4 hours after daily administration): 2.44 mmHg
Change of intraocular pressure ([2]; 1.0 mg/mL once per day, Day 11, 4 hours after daily administration): 2.19 mmHg
Change of intraocular pressure ([2]; 1.0 mg/mL once per day, Day 12, 4 hours after daily administration): 2.64 mmHg
Change of intraocular pressure ([2]; 1.0 mg/mL once per day, Day 13, 4 hours after daily administration): 3.33 mmHg
Change of intraocular pressure ([2]; 1.0 mg/mL once per day, Day 14, 4 hours after daily administration): 3.53 mmHg
Change of intraocular pressure ([2]; 1.0 mg/mL, Day 1, 1 hour after administration): 3.23 mmHg
Change of intraocular pressure ([2]; 1.0 mg/mL, Day 1, 2 hours after administration): 4.3 mmHg
Change of intraocular pressure ([2]; 1.0 mg/mL, Day 1, 4 hours after administration): 4.87 mmHg
Change of intraocular pressure ([2]; 1.0 mg/mL, Day 1, 6 hours after administration): 3.94 mmHg
Change of intraocular pressure ([2]; 1.0 mg/mL, Day 1, 8 hours after administration): 3.75 mmHg
Change of intraocular pressure ([2]; 1.0 mg/mL, Day 1, 10 hours after administration): 3.86 mmHg
